Reference: patent US5977133A, “Pyridone antibiotic with improved safety profile” (priority 1998, dated 1999)
Structures can show the parent of a compound that is named as a salt.

System: bacteria
Assay: In vitro antibacterial activity (overall statement)
Assay type: cell-based
Details: ciprofloxacin resistant strains

## CN[C@@H]1CN(c2c(F)cn3c(=O)c(C(=O)O)cc(C4CC4)c3c2C)CC12CC2 [Example 1, 1-cyclopropyl-8-(7(S)-N-methylamino-5-azaspiro[2.4]heptyl)-7-fluoro-9-methyl-4-oxo-4H-guinolizine-3-carboxylic acid hydrochloride]
  activity against ciprofloxacin resistant strains in words: highly active against ciprofloxacin resistant strains
